Measurements published in patent US6503922B2, “Bridged nicotine compounds for use in the treatment of CNS pathologies” (priority 2000, dated 2003).
Where two headings read alike, the source gives them in different places.

Legend:
[1] = molecular target: T1, α7-type neuronal nicotinic acetylcholine receptors (Rattus norvegicus, UniProt Q05941); assay: [3H]-MLA binding assay, rat brain membranes; details: for remaining activity at 10 µM: compound 10 μM, 2.5 nM [3H]-MLA, whole brain binding relative to control
T1 construct: The brain tissue was homogenized with a Tekmar Polytron; from tissue; host or cells: male Sprague-Dawley rat brain membranes (whole brain without cortex, striatum and cerebellum)

[2] = molecular target: T2, α4β2-containing receptor subtype (Rattus norvegicus, UniProt P09483+P12390); assay: [3H]-NIC binding assay, rat striatal membranes; details: for Specific binding of [3H]-NIC in the presence of compound: 3 nM [3H]-NIC, mean ± S.E.M of 3 experiments
T2 construct: Striata from two rats were dissected, pooled, and homogenized; from tissue; host or cells: rat striatal membranes

[3] = molecular target: T2, α4β2-containing receptor subtype; assay: [3H]-NIC binding assay, rat striatal membranes; details: compared with NONI, NDNI, DHβE
Description: Striata from two rats were dissected, pooled, and homogenized with a Tekmar polytron in 10 vol of ice-cold modified Krebs-HEPES buffer (20 mM HEPES, 118 mM NaCl, 4.8 mM KCl, 2.5 mM CaCl2, 1.2 mM MgSO4, adjusted to pH 7.5). The homogenates were incubated at 37° C. for 5 minutes and centrifuged at 15,000 g for 20 minutes. The pellet was resuspended in 10 volumes of ice-cold MilliQ water, incubated for 5 minutes at 37° C., and centrifuged at 15,000 g for 20 minutes. The second pellet was then resuspended in 10 volumes of fresh ice-cold 10% Krebs-HEPES buffer, incubated at 37° C., and centrifuged at 15,000 g for 20 minutes. The latter sequence of resuspension, incubation, and centrifugation was repeated. The pellet was frozen under fresh 10% Krebs-HEPES buffer and stored at −40° C. until assayed. Upon assay, the pellet was resuspended in the Krebs-HEPES buffer, incubated at 37° C. for 5 minutes, and centrifuged at 15,000 g for 20 minutes. The final pellet was resuspended in 3.6 ml ice-cold MilliQ water which provided for approximately 200 μg protein per 100 μl aliquot. Competition assays were performed in triplicate in a final volume of 200 μl Krebs-HEPES buffer containing […] Tris buffer (pH 7.5 at 4° C.). Reactions were initiated by addition of 100 μl of membrane suspension to […] [^3H]-NIC (50 μl). and one of at least nine concentrations of analog (50 μl). After a 90 minutes incubation at […], reactions were terminated by dilution of the samples with 3 ml of ice-cold Krebs-HEPES buffer followed immediately by filtration through Whatman GF/B. glass fiber filters (presoaked in 0.5% polyethyleneimine) using a Brandel Cell Harvester. Filters were rinsed three times with. 3 ml of ice-cold Krebs-HEPES buffer, transferred to scintillation vials, and 5 ml scintillation cocktail (Research Products International Corp., Mt. Prospect, Ill.) added. Nonspecific binding determined in triplicate was defined as binding in the presence of 10 μM NIC. Binding parameters were determined using the weighted, least squares regression.
The conformationally restricted nicotine analogs were evaluated for their ability to displace [^3H]-NIC binding from rat striatal membranes.

T2 sequence (P09483 31-630): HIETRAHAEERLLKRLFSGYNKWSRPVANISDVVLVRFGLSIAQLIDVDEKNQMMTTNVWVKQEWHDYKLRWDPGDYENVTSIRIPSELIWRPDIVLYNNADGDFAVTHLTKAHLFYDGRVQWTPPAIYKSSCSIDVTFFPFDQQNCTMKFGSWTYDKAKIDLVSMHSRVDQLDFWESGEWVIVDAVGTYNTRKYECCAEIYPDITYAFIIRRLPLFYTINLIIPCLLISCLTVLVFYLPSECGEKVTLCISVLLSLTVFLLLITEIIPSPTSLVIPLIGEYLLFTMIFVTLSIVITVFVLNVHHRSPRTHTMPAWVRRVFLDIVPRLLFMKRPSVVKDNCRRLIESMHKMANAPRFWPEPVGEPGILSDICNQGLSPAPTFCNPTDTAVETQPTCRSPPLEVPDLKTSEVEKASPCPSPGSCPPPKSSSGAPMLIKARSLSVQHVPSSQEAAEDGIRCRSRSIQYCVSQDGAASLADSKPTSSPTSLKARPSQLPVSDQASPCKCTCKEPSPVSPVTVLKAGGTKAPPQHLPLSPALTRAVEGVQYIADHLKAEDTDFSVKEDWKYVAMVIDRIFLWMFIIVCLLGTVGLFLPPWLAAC
T2 sequence (P12390 25-500): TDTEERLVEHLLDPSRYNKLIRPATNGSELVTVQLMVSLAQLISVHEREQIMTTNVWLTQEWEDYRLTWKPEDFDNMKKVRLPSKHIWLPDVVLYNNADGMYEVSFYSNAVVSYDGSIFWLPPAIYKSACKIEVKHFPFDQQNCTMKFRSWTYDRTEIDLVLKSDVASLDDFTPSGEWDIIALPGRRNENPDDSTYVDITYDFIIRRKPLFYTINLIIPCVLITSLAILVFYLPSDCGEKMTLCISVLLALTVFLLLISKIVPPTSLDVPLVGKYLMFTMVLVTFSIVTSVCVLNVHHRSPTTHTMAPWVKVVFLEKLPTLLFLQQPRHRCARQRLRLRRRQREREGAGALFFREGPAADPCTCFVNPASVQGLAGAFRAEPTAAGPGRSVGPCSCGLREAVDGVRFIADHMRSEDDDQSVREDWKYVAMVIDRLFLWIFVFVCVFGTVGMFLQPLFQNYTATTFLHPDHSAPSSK
T1 sequence (Q05941 23-502): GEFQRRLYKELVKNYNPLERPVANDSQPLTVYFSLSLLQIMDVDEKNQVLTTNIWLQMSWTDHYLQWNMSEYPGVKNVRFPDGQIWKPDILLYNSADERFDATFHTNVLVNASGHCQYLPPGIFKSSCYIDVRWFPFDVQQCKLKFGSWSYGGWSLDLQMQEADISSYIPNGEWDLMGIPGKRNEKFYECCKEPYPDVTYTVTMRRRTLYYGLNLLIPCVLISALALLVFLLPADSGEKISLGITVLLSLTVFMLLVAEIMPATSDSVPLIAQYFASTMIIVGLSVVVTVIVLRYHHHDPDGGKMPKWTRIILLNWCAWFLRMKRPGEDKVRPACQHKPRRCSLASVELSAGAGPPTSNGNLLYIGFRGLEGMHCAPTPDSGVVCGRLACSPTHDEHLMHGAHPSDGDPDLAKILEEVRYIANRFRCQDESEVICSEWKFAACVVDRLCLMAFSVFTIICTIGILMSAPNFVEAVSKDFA

Row | Molecule | remaining activity at 10 µM [1] | Specific binding of [3H]-NIC in the presence of compound ([2]; compound 1 μM) | Specific binding of [3H]-NIC in the presence of compound ([2]; compound 10 μM) | Specific binding of [3H]-NIC in the presence of compound ([2]; compound 100 μM) | Affinity for the [3H]-NIC binding site (in words) [3] | Affinity for the [3H]-NIC binding site (in words) [2] | Ki [1]
1 | CCCCCCCCC[n+]1ccc2c(c1)[C@@H]1[C@H](CC2)CCN1C.[I-] (relative stereo) [ACN, cis-1-methyl-8-nonyl-2,3,3a,4,5,9b-hexahydro-1H-pyrrolo[3,2-h]isoquinolin-8-ium iodide] | 101% | 49.8 ± 3.6 fmol/mg of protein | 48.9 ± 2.9 fmol/mg of protein | 30.2 ± 2.2 fmol/mg of protein |  |  | 
2 | CCCCCCCCCC[n+]1cccc2c1CCC1CCN(C)C21 (stereo not shown) [BCD] | 96.2% | 54.9 ± 0.7 fmol/mg of protein | 54.4 ± 1.1 fmol/mg of protein | 47.9 ± 2.8 fmol/mg of protein | lost their ability to interact with this binding site |  | 
3 | CCCCCCCC[n+]1cccc2c1CCC1CCN(C)C21 (stereo not shown) [BCO] | 93.6% | 50.5 ± 1.2 fmol/mg of protein | 39.7 ± 1.4 fmol/mg of protein | 13.5 ± 0.5 fmol/mg of protein | much lower affinity for the [^3H]-NIC binding site compared to NONI |  | 
4 | CCCCCCCCCCC[n+]1cccc2c1CCC1CCN(C)C21 (stereo not shown) [BCU] | 92.3% | 56.1 ± 0.6 fmol/mg of protein | 53.9 ± 1.2 fmol/mg of protein | 37.3 ± 1.8 fmol/mg of protein |  |  | 
5 | CCCCCCCCCC[n+]1cccc([C@@H]2CCCN2C)c1.[I-] [NDNI, reference compound] |  |  |  |  |  | high affinity | 
6 | CCCCCCCC[n+]1ccc2c(c1)[C@@H]1[C@H](CC2)CCN1C.[I-] (relative stereo) [ACO, cis-1-methyl-8-octyl-2,3,3a,4,5,9b-hexahydro-1H-pyrrolo[3,2-h]isoquinolin-8-ium iodide] | 91.5% | 44.5 ± 0.4 fmol/mg of protein | 42.2 ± 0.5 fmol/mg of protein | 30.2 ± 6.9 fmol/mg of protein | much lower affinity for the [^3H]-NIC binding site compared to NONI |  | 
7 | CCCCCCCCCCCC[n+]1cccc2c1CCC1CCN(C)C21 (stereo not drawn) [BCDD, cis-6-dodecyl-1-methyl-2,3,3a,4,5,9b-hexahydro-1H-pyrrolo[2,3-f]isoquinolin-6-ium iodide] | 94.2% | 43.7 ± 4.5 fmol/mg of protein | 43.0 ± 4.7 fmol/mg of protein | 34.0 ± 2.1 fmol/mg of protein |  |  | 
8 | α-Bungarotoxin [reference compound] |  |  |  |  |  |  | 28.6 ± 5.4 nM
9 | CCCCCCCCC[n+]1cccc2c1CCC1CCN(C)C21 (stereo not drawn) [BCN, cis-1-methyl-6-nonyl-2,3,3a,4,5,9b-hexahydro-1H-pyrrolo[2,3-f]isoquinolin-6-ium iodide] | 94% | 49.6 ± 1.2 fmol/mg of protein | 47.7 ± 2.1 fmol/mg of protein | 36.2 ± 0.3 fmol/mg of protein |  |  | 
10 | CCCCCCCCCCC[n+]1ccc2c(c1)[C@@H]1[C@H](CC2)CCN1C.[I-] (relative stereo) [ACU, cis-1-methyl-8-undecyl-2,3,3a,4,5,9b-hexahydro-1H-pyrrolo[3,2-h]isoquinolin-8-ium iodide] | 100% | 51.3 ± 2.0 fmol/mg of protein | 49.0 ± 0.3 fmol/mg of protein | 42.7 ± 2.1 fmol/mg of protein |  |  | 
11 | CCCCCCCCCCCC[n+]1ccc2c(c1)[C@@H]1[C@H](CC2)CCN1C.[I-] (relative stereo) [ACDD, cis-8-dodecyl-1-methyl-2,3,3a,4,5,9b-hexahydro-1H-pyrrolo[3,2-h]isoquinolin-8-ium iodide] | 102% | 49.5 ± 0.7 fmol/mg of protein | 49.8 ± 2.9 fmol/mg of protein | 44.5 ± 1.7 fmol/mg of protein |  |  | 
12 | CCCCCCCCCC[n+]1ccc2c(c1)[C@@H]1[C@H](CC2)CCN1C.[I-] (relative stereo) [ACD, cis-8-decyl-1-methyl-2,3,3a,4,5,9b-hexahydro-1H-pyrrolo[3,2-h]isoquinolin-8-ium iodide] | 102% | 50.3 ± 3.7 fmol/mg of protein | 52.1 ± 2.6 fmol/mg of protein | 37.0 ± 1.7 fmol/mg of protein | lost their ability to interact with this binding site |  | 
